# Results as given in ChEMBL document CHEMBL1201862, “PubChem BioAssay data set” (2004).
#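 Results reflect a 48-hour exposure of cells in 96-well plates to compound at five concentrations. At the GI50, growth is halved.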 Calls of active or inactive are those of the source. Rule as the data show it: active = GI50 up to about 1.1 µM and inactive = higher.
# Key:
# Test in all cases: growth of human tumour cells (NCI), 48 h
# [1] = test system: MCF7
# [2] = test system: ACHN
# [3] = test system: SF-268
# [4] = test system: Malme-3M
# [5] = test system: COLO 205
# [6] = test system: SW-620
# [7] = test system: SK-MEL-5
# [8] = test system: M14
# [9] = test system: OVCAR-3
# [10] = test system: HL-60
# [11] = test system: DU-145
# [12] = test system: RXF 393
# [13] = test system: SN12C
# [14] = test system: NCI-H522
# [15] = test system: HOP-62
# [16] = test system: UACC-62
# [17] = test system: 786-0
# [18] = test system: OVCAR-4
# [19] = test system: MDA-N
# [20] = test system: SK-MEL-2
SMILES,GI50 [1],GI50 [2],GI50 [3],GI50 [4],GI50 [5],GI50 [6],GI50 [7],GI50 [8],GI50 [9],GI50 [10],GI50 [11],GI50 [12],GI50 [13],GI50 [14],GI50 [15],GI50 [16],GI50 [17],GI50 [18],GI50 [19],GI50 [20]
Cc1ccc2c(c1)C(=O)C1(C2)Cc2c(C)cccc2C1=O (stereo not given),> 100 µM (inactive),> 100 µM (inactive),> 100 µM (inactive),> 100 µM (inactive),> 100 µM (inactive),> 100 µM (inactive),> 100 µM (inactive),> 100 µM (inactive),> 100 µM (inactive),> 100 µM (inactive),> 100 µM (inactive),> 100 µM (inactive),> 100 µM (inactive),> 100 µM (inactive),> 100 µM (inactive),> 100 µM (inactive),> 100 µM (inactive),> 100 µM (inactive),> 100 µM (inactive),
COc1cc(CNc2c3ccccc3nc3ccccc23)cc(OC)c1OC,5.48 µM (inactive),3.07 µM (inactive),4.07 µM (inactive),3.71 µM (inactive),1.69 µM (inactive),1.16 µM (inactive),2.72 µM (inactive),2.59 µM (inactive),5.21 µM (inactive),,4.52 µM (inactive),2.86 µM (inactive),2.88 µM (inactive),2.55 µM (inactive),2.93 µM (inactive),2.43 µM (inactive),2.6 µM (inactive),2.1 µM (inactive),2.76 µM (inactive),2.23 µM (inactive)
C=C(C)C(=O)O[C@@H]1C[C@@]2(C)O[C@@H]2C[C@H](O)/C(C)=C/[C@H]2OC(=O)C(=C)[C@@H]21,35.8 µM (inactive),47.2 µM (inactive),> 100 µM (inactive),24.5 µM (inactive),42 µM (inactive),18.7 µM (inactive),> 100 µM (inactive),43.1 µM (inactive),47.9 µM (inactive),,> 100 µM (inactive),33.3 µM (inactive),36.6 µM (inactive),12.6 µM (inactive),> 100 µM (inactive),74.5 µM (inactive),38.9 µM (inactive),19.9 µM (inactive),50 µM (inactive),49.1 µM (inactive)
COc1ccc(N2C(=O)C(=O)C3(CCCCC3)C2=O)c(OC)c1OC,> 100 µM (inactive),> 100 µM (inactive),> 100 µM (inactive),> 100 µM (inactive),> 100 µM (inactive),> 100 µM (inactive),> 100 µM (inactive),> 100 µM (inactive),> 100 µM (inactive),> 100 µM (inactive),> 100 µM (inactive),> 100 µM (inactive),> 100 µM (inactive),> 100 µM (inactive),,> 100 µM (inactive),> 100 µM (inactive),> 100 µM (inactive),> 100 µM (inactive),
Cc1ccc(Nc2nnc3n2S(=O)(=O)c2cc(C)c(Cl)cc2S3)cc1,5.26 µM (inactive),27.9 µM (inactive),4.25 µM (inactive),,,14.5 µM (inactive),3.6 µM (inactive),7.14 µM (inactive),2 µM (inactive),3.48 µM (inactive),8.09 µM (inactive),10.5 µM (inactive),,2.18 µM (inactive),6.35 µM (inactive),,10.3 µM (inactive),22.8 µM (inactive),1.7 µM (inactive),3.91 µM (inactive)
NC(=O)NC(=O)c1cccc(NC(=O)CBr)c1,< 0.01 µM (active),< 0.0209 µM (active),< 0.0158 µM (active),,< 0.01 µM (active),< 0.01 µM (active),< 0.0119 µM (active),0.198 µM (active),< 0.01 µM (active),< 0.01 µM (active),< 0.022 µM (active),< 0.019 µM (active),< 0.0206 µM (active),< 0.01 µM (active),0.0577 µM (active),< 0.0175 µM (active),< 0.01 µM (active),0.0706 µM (active),< 0.0134 µM (active),0.0286 µM (active)
